Test results from patent publication US20230338609A1, “MEDICAL DEVICES AND MATERIALS COMPRISING BIODEGRADABLE POLYESTERS” (AMICOAT AS, priority 2020, published 2023).
Values after ≈ are worked out from the molar mass of the structure shown.

Columns and labels:
[1] = tested on: Salmonella sp - antibiotic-susceptible clinical isolate; assay: MIC microbroth dilution (CLSI); format: cell-based
Source text: (§1) Cation-adjusted Mueller-Hinton broth (Oxoid Ltd., Basingstoke, UK and Trek Diagnostic Systems Ltd., East Grinstead, UK) (supplemented with 5% laked horse blood for Streptococcus spp., Corynebacterium jeikeium and Listeria monocytogenes) was used for aerobic bacteria, with an initial inoculum of approximately 10^5 colony-forming units (CFU)/mL.

[2] = tested on: Shigella sp - antibiotic-susceptible clinical isolate; assay: MIC microbroth dilution (CLSI); format: cell-based
Source text: as §1

[3] = tested on: Salmonella sp - multi-drug resistant clinical isolate; assay: MIC microbroth dilution (CLSI); format: cell-based
Source text: as §1

[4] = tested on: Haemophilus influenzae - β -lactamase positive clinical isolate
[5] = tested on: Haemophilus influenzae β- lactamase negative ampicillin-resistant clinical isolate
[6] = tested on: Stenotrophomonas maltophilia - antibiotic-susceptible clinical isolate; format: cell-based
Source text: as §1

[7] = tested on: Pseudomonas aeruginosa - multi-drug resistant clinical isolate; format: cell-based
Source text: as §1

[8] = tested on: Staphylococcus haemolyticus - antibiotic susceptible clinical isolate; format: cell-based
Source text: as §1

[9] = tested on: Klebsiella aerogenes - multi-drug resistant clinical isolate; format: cell-based
Source text: as §1

[10] = tested on: Staphylococcus aureus ATCC 43300 - methicillin-resistant control strain; format: cell-based
Source text: as §1

[11] = tested on: Enterobacter sp - antibiotic-susceptible clinical isolate; format: cell-based
Source text: as §1

[12] = tested on: EMRSA15 Staphylococcus aureus (MRSA) - SSCmec type 4; format: cell-based; conditions: EMRSA15 - SSCmec type 4
Source text: as §1

[13] = tested on: Streptococcus bovis - macrolide-resistant clinical isolate; format: cell-based
Source text: as §1

[14] = tested on: Staphylococcus saprophyticus - antibiotic susceptible clinical isolate; format: cell-based
Source text: as §1

[15] = tested on: Klebsiella aerogenes NCTC11228 - antibiotic-susceptible type strain; format: cell-based
Source text: as §1

[16] = tested on: Enterococcus gallinarum vancomycin-resistant (VanC) clinical isolate; format: cell-based
Source text: as §1

[17] = tested on: Streptococcus pyogenes - Macrolide (M-type) resistance clinical isolate; format: cell-based; conditions: - Macrolide (M-type) resistance clinical isolate
Source text: as §1

[18] = tested on: Group G Streptococcus - antibiotic-susceptible clinical isolate; format: cell-based
Source text: as §1

[19] = tested on: MU50 Staphylococcus aureus (MRSA) - VISA type strain; format: cell-based
Source text: as §1

[20] = tested on: Staphylococcus aureus ATCC 29213 - antibiotic-susceptible control strain; format: cell-based
Source text: as §1

[21] = tested on: Enterococcus faecalis vancomycin-resistant (VanB) clinical isolate; format: cell-based
Source text: as §1

[22] = tested on: HT2001254 Staphylococcus aureus (MRSA) - PVL positive; format: cell-based
Source text: as §1

[23] = tested on: Staphylococcus epidermidis methicillin-resistant clinical isolate; format: cell-based
Source text: as §1

[24] = tested on: S. pyogenes; conditions: Table 5
[25] = tested on: Propionibacterium acnes- antibiotic-susceptible clinical isolate; assay: MIC microbroth dilution (CLSI); format: cell-based; conditions: P. acnes antibiotic-susceptible
Description: Supplemented Brucella broth (SBB) was used for the anaerobic strains with an inoculum of approximately 10^6 CFU/mL. SBB is a broth consisting of 1% peptone, 0.5% ‘Lab-lemco’, 1% glucose and 0.5% sodium chloride supplemented with 5 […] vitamin K (both obtained from Sigma Aldrich Ltd.)

[26] = tested on: E. coli; conditions: Table 5
[27] = tested on: C. albicans; conditions: Table 5
[28] = tested on: Trichophyton interdigitale - G.R. Micro collection; format: cell-based
Description: (§2) Yeast and filamentous fungal MIC were performed in MOPS buffered RPMI 1640 medium (MOPS buffer obtained from Sigma Aldrich Ltd., RPMI 1640 obtained from Invitrogen Ltd, Paisley, Scotland). The yeast inocula were in the range 7.5×10^2-4×10^3 CFU/mL and the filamentous fungi approximately 8×10^3-1×10^5 CFU/mL

[29] = tested on: Microsporum canis - G.R. Micro collection; format: cell-based
Description: as §2

[30] = tested on: Aspergillus niger - G.R. Micro collection; format: cell-based
Description: as §2

[31] = tested on: Trichophyton mentagrophytes - G.R. Micro collection; format: cell-based
Description: as §2

[32] = tested on: Candida albicans ATCC90028 - reference strain; format: cell-based
Description: as §2

[33] = tested on: Candida tropicalis ATCC750 - reference strain; format: cell-based
Description: as §2

[34] = tested on: Candida parapsilosis ATCC90018 - reference strain; format: cell-based
Description: as §2

[35] = tested on: Candida albicans ATCC24433 - reference strain; format: cell-based
Description: as §2

[36] = tested on: Cryptococcus neoformans - G.R. Micro collection; format: cell-based
Description: as §2

[37] = tested on: P. aeruginosa; conditions: Table 5

CCCCCCNC(=O)[C@H](CCCNC(=N)N)NC(=O)[C@H](Cc1c(C(C)(C)C)[nH]c2c(C(C)(C)C)cc(C(C)(C)C)cc12)NC(=O)[C@@H](N)CCCNC(=N)N [Compound 8] gave an MIC [1] of 8 mg/L (≈ 10.4 µM), an MIC [2] of 4 mg/L (≈ 5.21 µM) and an MIC [3] of 8 mg/L (≈ 10.4 µM). For the same molecule, the MIC [4] was 4 mg/L (≈ 5.21 µM), the MIC [5] was 8 mg/L (≈ 10.4 µM) and the MIC [6] was 4 mg/L (≈ 5.21 µM). It also gave an MIC [7] of 4 mg/L (≈ 5.21 µM), an MIC [8] of 4 mg/L (≈ 5.21 µM) and an MIC [9] of 8 mg/L (≈ 10.4 µM). For the same molecule, the MIC [10] was 4 mg/L (≈ 5.21 µM), the MIC [11] was 8 mg/L (≈ 10.4 µM) and the MIC [12] was 4 mg/L (≈ 5.21 µM). It also gave an MIC [13] of 2 mg/L (≈ 2.6 µM), an MIC [14] of 0.5 mg/L (≈ 0.651 µM) and an MIC [15] of 8 mg/L (≈ 10.4 µM). It also gave an MIC [16] of 4 mg/L (≈ 5.21 µM), an MIC [17] of 8 mg/L (≈ 10.4 µM) and an MIC [18] of 8 mg/L (≈ 10.4 µM). For the same molecule, the MIC [19] was 4 mg/L (≈ 5.21 µM), the MIC [20] was 4 mg/L (≈ 5.21 µM) and the MIC [21] was 8 mg/L (≈ 10.4 µM). The MIC [22] was 4 mg/L (≈ 5.21 µM), the MIC [23] was 2 mg/L (≈ 2.6 µM) and the “S. pyogenes (MIC)” value [24] was 2 mg/L. The MIC [25] was 4 mg/L (≈ 5.21 µM), the “E. coli (MIC)” value [26] was 5 mg/L and the “C. albicans (MIC)” value [27] was 5 mg/L. For the same molecule, the MIC [28] was 4 mg/L (≈ 5.21 µM), the MIC [29] was 4 mg/L (≈ 5.21 µM) and the MIC [30] was 4 mg/L (≈ 5.21 µM). It also gave an MIC [31] of 4 mg/L (≈ 5.21 µM), an MIC [32] of 4 mg/L (≈ 5.21 µM) and an MIC [33] of 4 mg/L (≈ 5.21 µM). It also gave an MIC [34] of 8 mg/L (≈ 10.4 µM), an MIC [35] of 8 mg/L (≈ 10.4 µM) and an MIC [36] of 2 mg/L (≈ 2.6 µM). For the same molecule, the “P. aeruginosa (MIC)” value [37] was 5 mg/L.
